ChEMBL document CHEMBL4265949, “Design, synthesis and biological evaluation of 2-substituted 3-hydroxy-6-methyl-4H-pyran-4-one derivatives as Pseudomonas aeruginosa biofilm inhibitors” (Eur J Med Chem, 2018)
Calls of active or inactive are those of the source. The rule behind the calls is not given here.

Tests used:
Pseudomonas aeruginosa [1] = experiment: Inhibition of biofilm formation of Pseudomonas aeruginosa PAO1 at 20 uM after 24 hrs by crystal violet staining based assay relative to control; assay type: functional; conditions: PAO1, 24 h
Pseudomonas aeruginosa [2] = experiment: Antibacterial activity against Pseudomonas aeruginosa PAO1 recorded every 10 mins for 15 hrs by broth micro dilution method; assay type: functional
[3] = target: T1, Anthranilate--CoA ligase (Pseudomonas aeruginosa (strain ATCC 15692 / DSM 22644 / CIP 104116 /JCM 14847 / LMG 12228 / 1C / PRS 101 / PAO1)) (UniProt Q9I4X3); experiment: Inhibition of Pseudomonas aeruginosa PAO1 GFP-fused quorum sensing pqsA assessed as decrease in pyocyanin production
T1 sequence (whole entry): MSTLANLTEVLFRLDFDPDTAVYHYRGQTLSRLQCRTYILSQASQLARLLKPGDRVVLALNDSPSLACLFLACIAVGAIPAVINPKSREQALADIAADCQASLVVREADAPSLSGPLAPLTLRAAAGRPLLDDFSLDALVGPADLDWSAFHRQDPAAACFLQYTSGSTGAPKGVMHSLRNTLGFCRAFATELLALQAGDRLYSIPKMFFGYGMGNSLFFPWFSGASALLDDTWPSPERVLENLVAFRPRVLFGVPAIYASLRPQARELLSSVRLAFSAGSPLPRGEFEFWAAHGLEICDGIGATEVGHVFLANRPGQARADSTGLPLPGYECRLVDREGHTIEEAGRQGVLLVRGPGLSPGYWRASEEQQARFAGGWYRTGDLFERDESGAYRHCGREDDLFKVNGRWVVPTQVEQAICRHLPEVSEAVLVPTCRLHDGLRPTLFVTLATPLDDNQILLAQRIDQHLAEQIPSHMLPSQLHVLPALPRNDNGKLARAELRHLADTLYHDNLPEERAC

RAW264.7 [4] = experiment: Cytotoxicity against mouse RAW264.7 cells assessed as decrease in cell viability at 50 uM after 24 hrs by MTT assay; assay type: cell-based; conditions: raw264.7, 24 h
[5] = target: 3-(3-hydroxydecanoyloxy)decanoate synthase (Pseudomonas aeruginosa (strain ATCC 15692 / PAO1 / 1C / PRS 101 / LMG12228)) (UniProt Q51559); experiment: Inhibition of Pseudomonas aeruginosa PAO1 GFP-fused quorum sensing rhlA up to 40 uM measured every 15 mins up to 12 hrs by GFP reporter gene assay
Pseudomonas aeruginosa [6] = experiment: Inhibition of biofilm formation of Pseudomonas aeruginosa PAO1 at 2.5 uM after 24 hrs by crystal violet staining based assay relative to control; assay type: functional; conditions: PAO1, 24 h
[7] = Effect on GFP (unknown origin) protein expression in Pseudomonas aeruginosa PAO1 up to 40 uM after 12 hrs by GFP reporter gene assay; conditions: unidentified
Pseudomonas aeruginosa [8] = experiment: Antibacterial activity against Pseudomonas aeruginosa PAO1 up to 40 uM after 13 hrs by broth micro dilution method; assay type: functional, organism-based
[9] = target: T1, Anthranilate--CoA ligase (Pseudomonas aeruginosa (strain ATCC 15692 / DSM 22644 / CIP 104116 /JCM 14847 / LMG 12228 / 1C / PRS 101 / PAO1)); experiment: Inhibition of Pseudomonas aeruginosa PAO1 GFP-fused quorum sensing pqsA measured every 15 mins up to 12 hrs by GFP reporter gene assay
RAW264.7 [10] = experiment: Cytotoxicity against mouse RAW264.7 cells assessed as decrease in cell viability at <= 2.5 uM after 24 hrs by MTT assay; assay type: cell-based; conditions: raw264.7, 24 h
[11] = target: T1, Anthranilate--CoA ligase (Pseudomonas aeruginosa (strain ATCC 15692 / DSM 22644 / CIP 104116 /JCM 14847 / LMG 12228 / 1C / PRS 101 / PAO1)); experiment: Inhibition of Pseudomonas aeruginosa PAO1 GFP-fused quorum sensing pqsA assessed as decrease in pyocyanin production at 40 uM
Pseudomonas aeruginosa [12] = experiment: Inhibition of biofilm formation of Pseudomonas aeruginosa PAO1 after 24 hrs by crystal violet staining based assay; assay type: functional, organism-based
Pseudomonas aeruginosa [13] = experiment: Inhibition of biofilm formation of Pseudomonas aeruginosa PAO1 after 24 hrs by confocal laser scanning microscopy; assay type: functional, organism-based
[14] = target: 3-(3-hydroxydecanoyloxy)decanoate synthase (Pseudomonas aeruginosa (strain ATCC 15692 / PAO1 / 1C / PRS 101 / LMG12228)) (UniProt Q51559); experiment: Inhibition of Pseudomonas aeruginosa PAO1 GFP-fused quorum sensing rhlA assessed as decrease in rhamnolipid lipid levels up to 40 uM measured after 30 mins
[15] = target: Elastase (Pseudomonas aeruginosa (strain ATCC 15692 / PAO1 / 1C / PRS 101 / LMG12228)) (UniProt P14756); experiment: Inhibition of Pseudomonas aeruginosa PAO1 GFP-fused quorum sensing lasB up to 40 uM measured every 15 mins up to 12 hrs by GFP reporter gene assay
[16] = target: Elastase (Pseudomonas aeruginosa (strain ATCC 15692 / PAO1 / 1C / PRS 101 / LMG12228)) (UniProt P14756); experiment: Inhibition of Pseudomonas aeruginosa PAO1 GFP-fused quorum sensing lasB assessed as decrease in elastase activity up to 40 uM incubated for 24 hrs recorded every 10 mins for 3 hrs

Chain of Elastase (Pseudomonas aeruginosa (strain ATCC 15692 / PAO1 / 1C / PRS 101 / LMG12228)) (P14756 198-498 limits assumed): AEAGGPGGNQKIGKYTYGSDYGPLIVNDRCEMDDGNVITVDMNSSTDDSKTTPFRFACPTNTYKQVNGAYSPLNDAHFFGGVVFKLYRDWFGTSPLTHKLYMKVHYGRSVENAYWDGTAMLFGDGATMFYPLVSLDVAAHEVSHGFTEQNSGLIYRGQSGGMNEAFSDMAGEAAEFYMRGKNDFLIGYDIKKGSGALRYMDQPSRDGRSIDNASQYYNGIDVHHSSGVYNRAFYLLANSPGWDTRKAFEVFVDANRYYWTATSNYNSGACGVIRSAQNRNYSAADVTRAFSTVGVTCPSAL

Structure (SMILES): Cc1cc(=O)c(O)c(C(O)c2ccccc2Br)o1 (stereo unspecified)
- inhibition at 20 µM (Pseudomonas aeruginosa [1]): 9.04%
- MIC (Pseudomonas aeruginosa [2]): > 512 µM

Structure (SMILES): Cc1cc(=O)c(O)c(Cc2ccc(F)cc2)o1
- inhibition at 20 µM (Pseudomonas aeruginosa [1]): 30.5%
- MIC (Pseudomonas aeruginosa [2]): > 512 µM

Structure (SMILES): Cc1cc(=O)c(O)c(C(O)c2ccc(CCc3ccccc3)cc2)o1 (stereo unspecified)
- inhibition at 20 µM (Pseudomonas aeruginosa [1]): 28.7%
- MIC (Pseudomonas aeruginosa [2]): > 512 µM

Structure (SMILES): Cc1cc(=O)c(O)c(C(O)c2ccc(OCc3ccccc3)cc2)o1 (stereo unspecified)
- inhibition at 20 µM (Pseudomonas aeruginosa [1]): 22%
- MIC (Pseudomonas aeruginosa [2]): > 512 µM

Structure (SMILES): Cc1cc(=O)c(O)c(C(O)c2ccc([N+](=O)[O-])cc2)o1 (stereo unspecified)
- inhibition at 20 µM (Pseudomonas aeruginosa [1]): 51%
- inhibition [3]: Dose-dependent effect
- Activity (RAW264.7 [4]): Toxic
- MIC (Pseudomonas aeruginosa [2]): > 512 µM
- inhibition [5]: inactive
- inhibition at 2.5 µM (Pseudomonas aeruginosa [6]): 30%
- Activity [7]: Non-Toxic
- Activity (Pseudomonas aeruginosa [8]): inactive
- inhibition [9]: Dose-dependent effect
- Activity (RAW264.7 [10]): Non-Toxic
- inhibition [11]: 60%
- inhibition (Pseudomonas aeruginosa [12]): Dose-dependent effect
- inhibition (Pseudomonas aeruginosa [13]): Dose-dependent effect
- inhibition [14]: inactive
- inhibition [15]: inactive
- inhibition [16]: inactive

Structure (SMILES): Cc1cc(=O)c(O)c(C(O)c2ccc(C#Cc3ccccc3)cc2)o1 (stereo unspecified)
- inhibition at 20 µM (Pseudomonas aeruginosa [1]): 30.2%
- MIC (Pseudomonas aeruginosa [2]): > 512 µM

Structure (SMILES): CCCCCCC(O)c1oc(C)cc(=O)c1O (stereo unspecified)
- inhibition at 20 µM (Pseudomonas aeruginosa [1]): 41.5%
- MIC (Pseudomonas aeruginosa [2]): > 512 µM

Structure (SMILES): COc1ccc(C#Cc2ccc(C(O)c3oc(C)cc(=O)c3O)cc2)cc1 (stereo unspecified)
- inhibition at 20 µM (Pseudomonas aeruginosa [1]): 26.3%
- MIC (Pseudomonas aeruginosa [2]): > 512 µM

Structure (SMILES): Cc1cc(=O)c(O)c(C(O)c2ccc(OCc3ccc([N+](=O)[O-])cc3)cc2)o1 (stereo unspecified)
- inhibition at 20 µM (Pseudomonas aeruginosa [1]): 22%
- MIC (Pseudomonas aeruginosa [2]): > 512 µM

Structure (SMILES): Cc1cc(=O)c(O)c(C(O)c2ccc(C#CC3CCCCC3)cc2)o1 (stereo unspecified)
- inhibition at 20 µM (Pseudomonas aeruginosa [1]): 36.9%
- MIC (Pseudomonas aeruginosa [2]): > 512 µM

Structure (SMILES): Cc1cc(=O)c(O)c(C(O)c2ccc(C#Cc3cccc(F)c3)cc2)o1 (stereo unspecified)
- inhibition at 20 µM (Pseudomonas aeruginosa [1]): 31.5%
- MIC (Pseudomonas aeruginosa [2]): > 512 µM

Structure (SMILES): Cc1cc(=O)c(O)c(C(O)c2cccc(F)c2)o1 (stereo unspecified)
- inhibition at 20 µM (Pseudomonas aeruginosa [1]): 12.3%
- MIC (Pseudomonas aeruginosa [2]): > 512 µM

Structure (SMILES): CCCC(O)c1oc(C)cc(=O)c1O (stereo unspecified)
- inhibition at 20 µM (Pseudomonas aeruginosa [1]): 33.2%
- MIC (Pseudomonas aeruginosa [2]): > 512 µM

Structure (SMILES): Cc1cc(=O)c(O)c(C(O)c2ccc(C#Cc3ccc(C(F)(F)F)cc3)cc2)o1 (stereo unspecified)
- inhibition at 20 µM (Pseudomonas aeruginosa [1]): 24.9%
- MIC (Pseudomonas aeruginosa [2]): > 512 µM

Structure (SMILES): Cc1cc(=O)c(O)c(C(O)c2ccc(Cc3ccccc3)cc2)o1 (stereo unspecified)
- inhibition at 20 µM (Pseudomonas aeruginosa [1]): 20.6%
- MIC (Pseudomonas aeruginosa [2]): > 512 µM

Structure (SMILES): Cc1cc(=O)c(O)c(Cc2ccc(Cl)cc2)o1
- inhibition at 20 µM (Pseudomonas aeruginosa [1]): 34.2%
- MIC (Pseudomonas aeruginosa [2]): > 512 µM

Structure (SMILES): CCCCCC(O)c1oc(C)cc(=O)c1O (stereo unspecified)
- inhibition at 20 µM (Pseudomonas aeruginosa [1]): 44.6%
- MIC (Pseudomonas aeruginosa [2]): > 512 µM

Structure (SMILES): Cc1cc(=O)c(O)c(C(O)c2ccc(/C=C/c3ccccc3)cc2)o1 (stereo unspecified)
- inhibition at 20 µM (Pseudomonas aeruginosa [1]): 35.1%
- MIC (Pseudomonas aeruginosa [2]): > 512 µM

Structure (SMILES): CSCCC(O)c1oc(C)cc(=O)c1O (stereo unspecified)
- inhibition at 20 µM (Pseudomonas aeruginosa [1]): 25.9%
- MIC (Pseudomonas aeruginosa [2]): > 512 µM

Structure (SMILES): Cc1cc(=O)c(O)c(C(O)c2ccccc2F)o1 (stereo unspecified)
- inhibition at 20 µM (Pseudomonas aeruginosa [1]): 5.34%
- MIC (Pseudomonas aeruginosa [2]): > 512 µM

Structure (SMILES): Cc1cc(=O)c(O)c(C(O)c2ccc(C#Cc3ccc(F)cc3)cc2)o1 (stereo unspecified)
- inhibition at 20 µM (Pseudomonas aeruginosa [1]): 39.1%
- MIC (Pseudomonas aeruginosa [2]): > 512 µM

Structure (SMILES): Cc1cc(=O)c(O)c(C(O)c2ccc(-n3ccnc3)cc2)o1 (stereo unspecified)
- inhibition at 20 µM (Pseudomonas aeruginosa [1]): 17.3%
- MIC (Pseudomonas aeruginosa [2]): > 512 µM

Structure (SMILES): Cc1cc(=O)c(O)c(C(O)c2cccc(Br)c2)o1 (stereo unspecified)
- inhibition at 20 µM (Pseudomonas aeruginosa [1]): 5.67%
- MIC (Pseudomonas aeruginosa [2]): > 512 µM

Structure (SMILES): CCCCC(O)c1oc(C)cc(=O)c1O (stereo unspecified)
- inhibition at 20 µM (Pseudomonas aeruginosa [1]): 22%
- MIC (Pseudomonas aeruginosa [2]): > 512 µM

Structure (SMILES): Cc1cc(=O)c(O)c(C(O)c2ccc(C#Cc3ccccn3)cc2)o1 (stereo unspecified)
- inhibition at 20 µM (Pseudomonas aeruginosa [1]): 37.7%
- MIC (Pseudomonas aeruginosa [2]): > 512 µM

Structure (SMILES): Cc1cc(=O)c(O)c(C(O)c2ccc(-c3ccccc3)cc2)o1 (stereo unspecified)
- inhibition at 20 µM (Pseudomonas aeruginosa [1]): 3.26%
- MIC (Pseudomonas aeruginosa [2]): > 512 µM

Structure (SMILES): Cc1cc(=O)c(O)c(Cc2ccc(C(F)(F)F)cc2)o1
- inhibition at 20 µM (Pseudomonas aeruginosa [1]): 32.8%
- MIC (Pseudomonas aeruginosa [2]): > 512 µM

Structure (SMILES): CCCCCCCC(O)c1oc(C)cc(=O)c1O (stereo unspecified)
- inhibition at 20 µM (Pseudomonas aeruginosa [1]): 15.8%
- MIC (Pseudomonas aeruginosa [2]): > 512 µM

Structure (SMILES): Cc1cc(=O)c(O)c(C(O)c2ccc(-c3ccc([N+](=O)[O-])cc3)cc2)o1 (stereo unspecified)
- inhibition at 20 µM (Pseudomonas aeruginosa [1]): 48.5%
- MIC (Pseudomonas aeruginosa [2]): > 512 µM

Structure (SMILES): Cc1cc(=O)c(O)c(C(O)c2ccc(S(F)(F)(F)(F)F)cc2)o1 (stereo unspecified)
- inhibition at 20 µM (Pseudomonas aeruginosa [1]): 31.7%
- MIC (Pseudomonas aeruginosa [2]): > 512 µM

Structure (SMILES): Cc1cc(=O)c(O)c(Cc2ccccc2)o1
- inhibition at 20 µM (Pseudomonas aeruginosa [1]): 27.4%
- MIC (Pseudomonas aeruginosa [2]): > 512 µM
